# From PMC6600523, “Interference with Amyloid-β Nucleation by Transient Ligand Interaction” (Molecules, 2019)
# Where a SMILES comes first, the peptide text is derived from it. [ ]: non-standard residue; d: D form.
# What was measured:
# [1] = Sedimentation velocity AUC with fluorescence detection, labeled peptide alone; format: physicochemical; settings: sedimentation velocity AUC-FDS of FITC-D3 alone, 0.2 μM, 20 mM sodium phosphate, 50 mM NaCl pH 7.4, 0.0004% PEI
# Description: All measurements were performed using an XL-A analytical ultracentrifuge (Beckman coulter, Brea, CA, USA). […] All samples were prepared in 20 mM sodium phosphate, 50 mM NaCl (pH 7.4) containing 0.0004% PEI (w/v). Samples were then loaded into 3-mm double-sector titanium cells (Nanolytics, Potsdam, Germany), with each sector containing a 100 μL sample. The detection system uses an excitation laser at 488 nm and an emission cut-off filter at 505 nm to collect fluorescence signals. The amplification factor was adjusted to the same value for all samples for comparability. […] Data was acquired at 20 nm radial resolution. After thorough thermal equilibration the centrifugation was carried out at 60,000 rpm (289,000× g) at 20 °C for 15 h. Carrier proteins, such as albumin and kappa casein, are usually recommended to minimize unspecific surface adsorption for fluorescence-based AUC [56]. All sedimentation profiles were subjected to the software package SEDFIT (version 15.01b) for data evaluation. The data was analyzed with the continuous distribution c(s) Lamm equation model to obtain the sedimentation coefficient distributions. Fitting parameters (Table S1) including the buffer density and viscosity were determined using Sednterp (version 20130813BETA). […]
# [2] = target: T1, Aβ42 (Homo sapiens, UniProt P05067); test: Circular dichroism spectroscopy, secondary structure transition of Aβ42; format: biochemical; settings: 20 mM sodium phosphate, 50 mM NaF pH 7.4, 20 °C
# T1 construct: purchased Bachem H-1368.1000
# T1 sequence (P05067 672-713 limits assumed): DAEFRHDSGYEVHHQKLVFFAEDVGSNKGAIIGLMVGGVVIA
# Description: NaF was used to substitute NaCl in this measurement to maintain the ionic strength of the buffer, so as to avoid the strong absorbance of NaCl in the far-UV area. […] All samples were prepared on ice before being transferred to 1 mm path length quartz cuvettes. The final volume of each sample was 200 μL. Circular dichroism (CD) spectra were recorded from 260 nm to 190 nm using a J-815 spectropolarimeter (Jasco, Tokyo, Japan). All measurements were carried out with a step size of 0.5 nm and a bandwidth of 2 nm. The scanning speed was set to 100 nm/min and 10 scans were accumulated for each sample. […] Samples were maintained at 20 °C within the measurement duration of 120 h, and were prepared in triplicate. CD spectra for all samples were deconvoluted using the online server Dichroweb by applying the CDSSTR algorithm and reference dataset Set 7 [87].
# [3] = target: T1, Aβ42; test: Turbidity assay of Aβ42 samples with D3; format: physicochemical; settings: 40 μM Aβ42 with 4, 20, 40 and 80 μM D3; 20 mM sodium phosphate, 50 mM NaCl pH 7.4; ambient temperature; directly and after 2 h; UV-Vis
# Description: The turbidity assay was carried out by measuring the spectra of all samples from 450 nm to 210 nm in a 1 cm quartz cuvette using a V-650 UV-Vis spectrophotometer (Jasco, Tokyo, Japan). The measurements were performed directly after preparing all samples, and repeated after 2 h of incubation at ambient temperature.
# [4] = target: T1, Aβ42; test: Absorbance-based AUC, size distribution of Aβ42 after 24 h; format: biochemical; settings: 20 μM Aβ42 with 2 μM D3, 24 h, 20 mM sodium phosphate, 50 mM NaCl pH 7.4, 20 °C; absorbance AUC at 210 nm, 45,000 rpm; compared with Aβ42 alone
# Description: In brief, 380 μL samples were loaded into 12-mm double-sector aluminum cellsm and were thermally equilibrated prior to the final centrifugation. The centrifugation was performed at 45,000 rpm, 20 °C for 15.5 h. Sedimentation profiles were recorded at 210 nm, with a radial resolution of 20 μm.
# All sedimentation profiles were subjected to the software package SEDFIT (version 15.01b) for data evaluation. The data was analyzed with the continuous distribution c(s) Lamm equation model to obtain the sedimentation coefficient distributions. Fitting parameters (Table S1) including the buffer density and viscosity were determined using Sednterp (version 20130813BETA). […] Final graphs were generated using GUSSI (version 1.2.1) and sedimentation coefficients were standardized to s-values in pure water at 20 °C (s20,w).
# [5] = target: n-terminally biotinylated Aβ42 monomers; settings: read-out: KD for D3 and Aβ42 by SPR; n-terminally biotinylated Aβ42 monomers fixed on sensor chips via biotin-streptavidin; cited from earlier work
structure (smiles),measurement,setting,value
CC(C)C[C@@H](NC(=O)[C@@H](CCCNC(=N)N)NC(=O)[C@H](NC(=O)[C@@H](CCCNC(=N)N)NC(=O)[C@H]1CCCN1C(=O)[C@H](N)CCCNC(=N)N)[C@H](C)O)C(=O)N[C@H](Cc1c[nH]cn1)C(=O)N[C@@H](C(=O)N[C@H](Cc1c[nH]cn1)C(=O)N[C@H](CCCNC(=N)N)C(=O)N[C@H](CC(N)=O)C(=O)N[C@H](CCCNC(=N)N)C(N)=O)[C@H](C)O [D3] (H-[dR][dP][dR][dT][dR][dL][dH][dT][dH][dR][dN][dR]-NH2),Self-assembly or aggregation of D3 in solution,[1],does not form any self-assemblies or aggregates
same,Effect of delayed D3 addition on the structural transformation of Aβ42,[2]; 4 μM D3 added into 40 μM Aβ42 after 33 h preincubation,visibly delayed the structural transformation of Aβ42
same,Ellipticity at 217 nm of the Aβ42 sample with D3 relative to Aβ42 alone,"[2]; 40 μM Aβ42 with 4 μM D3, at 120 h, triplicate",about 72%
same,Turbidity (absorbance at 405 nm) of Aβ42 samples on addition of D3,[3],promotes the rapid formation of co-precipitates in a concentration-dependent manner
same,Size distribution of Aβ42 samples with D3 after 24 h,[4],no such large aggregates
same,Kd,[5],~4 µM
